Test results: ChEMBL document CHEMBL3885861, “Open TG-GATES”

Species: Rattus norvegicus
Test: Open TG-GATES - Regimen: Daily Repeat
Type: toxicity, organism-based, Sprague-Dawley
Parameters: regimen Daily Repeat, gender Male, age 6 weeks
Conditions: in vivo, po, 0 mg/kg, route gavage, dose level Control; for APTT / Bas / Eos / Fbg / Hb / Ht / Lym / MCH / MCHC / MCV / Mono / Neu / PT / Plat / RBC / Ret / WBC: tissue Blood; for KIDNEY_L / KIDNEY_R / KIDNEY_TOTAL: tissue Kidney; for LIVER: tissue Liver; for A/G / ALP / ALT / AST / BUN / CRE / Ca / Cl / DBIL / GLC / IP / K / LDH / Na / PL / RALB / TBIL / TC / TG / TP / gamma-GTP: tissue Plasma

SMILES: O=NN(CCCl)C(=O)NC1CCCCC1 [LOMUSTINE]
- TERMINAL_BW (72 h, time 3 day): 220.6 g
- APTT (72 h, time 3 day): 17.7 s
- Bas (72 h, time 3 day): 0%
- Eos (72 h, time 3 day): 0.6%
- Fbg (72 h, time 3 day): 234 mg/dL
- Hb (72 h, time 3 day): 13.5 g/dL
- Ht (72 h, time 3 day): 40.6%
- Lym (72 h, time 3 day): 76.8%
- MCH (72 h, time 3 day): 21.8 pg
- MCHC (72 h, time 3 day): 33.3%
- MCV (72 h, time 3 day): 65.5 fL
- Mono (72 h, time 3 day): 6.4%
- Neu (72 h, time 3 day): 16.2%
- PT (72 h, time 3 day): 11.8 s
- Plat (72 h, time 3 day): 108.6 x10_4/uL
- RBC (72 h, time 3 day): 619.4 x10_4/ul
- Ret (72 h, time 3 day): 7.2%
- WBC (72 h, time 3 day): 131.9 x10_2/uL
- KIDNEY_L (72 h, time 3 day): 1 g
- KIDNEY_R (72 h, time 3 day): 1 g
- KIDNEY_TOTAL (72 h, time 3 day): 2 g
- LIVER (72 h, time 3 day): 10.5 g
- A/G (72 h, time 3 day): 2
- ALP (72 h, time 3 day): 1042.6 IU/L
- ALT (72 h, time 3 day): 33.6 IU/L
- AST (72 h, time 3 day): 69.4 IU/L
- BUN (72 h, time 3 day): 18 mg/dL
- CRE (72 h, time 3 day): 0.5 mg/dL
- Ca (72 h, time 3 day): 11 mg/dL
- Cl (72 h, time 3 day): 104.4 meq/L
- DBIL (72 h, time 3 day): 0.006 mg/dL
- GLC (72 h, time 3 day): 186.2 mg/dL
- IP (72 h, time 3 day): 8.5 mg/dL
- K (72 h, time 3 day): 5.1 meq/L
- LDH (72 h, time 3 day): 99.8 IU/L
- Na (72 h, time 3 day): 140 meq/L
- PL (72 h, time 3 day): 147.6 mg/dL
- RALB (72 h, time 3 day): 3.9 g/dL
- TBIL (72 h, time 3 day): 0.4 mg/dL
- TC (72 h, time 3 day): 74.8 mg/dL
- TG (72 h, time 3 day): 114.6 mg/dL
- TP (72 h, time 3 day): 5.9 g/dL
- gamma-GTP (72 h, time 3 day): 2 IU/L
- TERMINAL_BW ([…], time 7 day): 258.9 g
- TERMINAL_BW ([…], time 14 day): 305.2 g
- TERMINAL_BW ([…], time 28 day): 379.6 g
- APTT ([…], time 7 day): 17.7 s
- Bas ([…], time 7 day): 0%
- Eos ([…], time 7 day): 1%
- Fbg ([…], time 7 day): 241.8 mg/dL
- Hb ([…], time 7 day): 13.4 g/dL
- Ht ([…], time 7 day): 40.2%
- Lym ([…], time 7 day): 79.6%
- MCH ([…], time 7 day): 21.8 pg
- MCHC ([…], time 7 day): 33.4%
- MCV ([…], time 7 day): 65.2 fL
- Mono ([…], time 7 day): 6%
- Neu ([…], time 7 day): 14.2%
- PT ([…], time 7 day): 11.4 s
- Plat ([…], time 7 day): 107.5 x10_4/uL
- RBC ([…], time 7 day): 617.4 x10_4/ul
- Ret ([…], time 7 day): 7.2%
- WBC ([…], time 7 day): 161 x10_2/uL
- APTT ([…], time 14 day): 16.7 s
- Bas ([…], time 14 day): 0%
- Eos ([…], time 14 day): 0.4%
- Fbg ([…], time 14 day): 224.4 mg/dL
- Hb ([…], time 14 day): 14.1 g/dL
- Ht ([…], time 14 day): 42%
- Lym ([…], time 14 day): 80.8%
- MCH ([…], time 14 day): 20.3 pg
- MCHC ([…], time 14 day): 33.5%
- MCV ([…], time 14 day): 60.7 fL
- Mono ([…], time 14 day): 6.8%
- Neu ([…], time 14 day): 11.8%
- PT ([…], time 14 day): 11.4 s
- Plat ([…], time 14 day): 119.2 x10_4/uL
- RBC ([…], time 14 day): 693.2 x10_4/ul
- Ret ([…], time 14 day): 4.9%
- WBC ([…], time 14 day): 145.5 x10_2/uL
- APTT ([…], time 28 day): 17.5 s
- Bas ([…], time 28 day): 0%
- Eos ([…], time 28 day): 1%
- Fbg ([…], time 28 day): 250.6 mg/dL
- Hb ([…], time 28 day): 15 g/dL
- Ht ([…], time 28 day): 44.9%
- Lym ([…], time 28 day): 82.8%
- MCH ([…], time 28 day): 19.2 pg
- MCHC ([…], time 28 day): 33.5%
- MCV ([…], time 28 day): 57.3 fL
- Mono ([…], time 28 day): 5.4%
- Neu ([…], time 28 day): 10.8%
- PT ([…], time 28 day): 11.9 s
- Plat ([…], time 28 day): 107.1 x10_4/uL
- RBC ([…], time 28 day): 783 x10_4/ul
- Ret ([…], time 28 day): 2.5%
- WBC ([…], time 28 day): 166.4 x10_2/uL
- KIDNEY_L ([…], time 7 day): 1.2 g
- KIDNEY_R ([…], time 7 day): 1.1 g
- KIDNEY_TOTAL ([…], time 7 day): 2.3 g
- KIDNEY_L ([…], time 14 day): 1.1 g
- KIDNEY_R ([…], time 14 day): 1.2 g
- KIDNEY_TOTAL ([…], time 14 day): 2.3 g
- KIDNEY_L ([…], time 28 day): 1.4 g
- KIDNEY_R ([…], time 28 day): 1.4 g
- KIDNEY_TOTAL ([…], time 28 day): 2.7 g
- LIVER ([…], time 7 day): 12.8 g
- LIVER ([…], time 14 day): 14.1 g
- LIVER ([…], time 28 day): 15.1 g
- A/G ([…], time 7 day): 1.8
- ALP ([…], time 7 day): 746 IU/L
- ALT ([…], time 7 day): 36.6 IU/L
- AST ([…], time 7 day): 59 IU/L
- BUN ([…], time 7 day): 19.2 mg/dL
- CRE ([…], time 7 day): 0.5 mg/dL
- Ca ([…], time 7 day): 10.9 mg/dL
- Cl ([…], time 7 day): 105.2 meq/L
- DBIL ([…], time 7 day): 0.012 mg/dL
- GLC ([…], time 7 day): 186 mg/dL
- IP ([…], time 7 day): 7.5 mg/dL
- K ([…], time 7 day): 4.9 meq/L
- LDH ([…], time 7 day): 85 IU/L
- Na ([…], time 7 day): 140.4 meq/L
- PL ([…], time 7 day): 168.2 mg/dL
- RALB ([…], time 7 day): 3.9 g/dL
- TBIL ([…], time 7 day): 0.3 mg/dL
- TC ([…], time 7 day): 90 mg/dL
- TG ([…], time 7 day): 113.2 mg/dL
- TP ([…], time 7 day): 6.1 g/dL
- gamma-GTP ([…], time 7 day): 1 IU/L
- A/G ([…], time 14 day): 2
- ALP ([…], time 14 day): 859 IU/L
- ALT ([…], time 14 day): 34 IU/L
- AST ([…], time 14 day): 63.4 IU/L
- BUN ([…], time 14 day): 20.2 mg/dL
- CRE ([…], time 14 day): 0.5 mg/dL
- Ca ([…], time 14 day): 11.3 mg/dL
- Cl ([…], time 14 day): 106.8 meq/L
- DBIL ([…], time 14 day): 0.014 mg/dL
- GLC ([…], time 14 day): 183 mg/dL
- IP ([…], time 14 day): 7.4 mg/dL
- K ([…], time 14 day): 4.7 meq/L
- LDH ([…], time 14 day): 85.6 IU/L
- Na ([…], time 14 day): 140.2 meq/L
- PL ([…], time 14 day): 167.6 mg/dL
- RALB ([…], time 14 day): 4 g/dL
- TBIL ([…], time 14 day): 0.3 mg/dL
- TC ([…], time 14 day): 81 mg/dL
- TG ([…], time 14 day): 118.6 mg/dL
- TP ([…], time 14 day): 6.2 g/dL
- gamma-GTP ([…], time 14 day): 2 IU/L
- A/G ([…], time 28 day): 1.6
- ALP ([…], time 28 day): 681.8 IU/L
- ALT ([…], time 28 day): 32.2 IU/L
- AST ([…], time 28 day): 63.4 IU/L
- BUN ([…], time 28 day): 19 mg/dL
- CRE ([…], time 28 day): 0.4 mg/dL
- Ca ([…], time 28 day): 10.8 mg/dL
- Cl ([…], time 28 day): 106 meq/L
- DBIL ([…], time 28 day): 0.012 mg/dL
- GLC ([…], time 28 day): 189.8 mg/dL
- IP ([…], time 28 day): 6.3 mg/dL
- K ([…], time 28 day): 4.6 meq/L
- LDH ([…], time 28 day): 86.4 IU/L
- Na ([…], time 28 day): 140 meq/L
- PL ([…], time 28 day): 148.4 mg/dL
- RALB ([…], time 28 day): 4 g/dL
- TBIL ([…], time 28 day): 0.3 mg/dL
- TC ([…], time 28 day): 71 mg/dL
- TG ([…], time 28 day): 122.2 mg/dL
- TP ([…], time 28 day): 6.4 g/dL
- gamma-GTP ([…], time 28 day): 1.8 IU/L
